Data on three compounds can be found in ChEMBL document CHEMBL4406889, “The identification and pharmacological evaluation of potent, selective and orally available ACC1 inhibitor” (Bioorg Med Chem Lett, 2019).

pIC50: −log10 of the molar value.

Data set [1] can be described thus: in vitro. Particulars: human, liver microsomes.
Description: Metabolic stability in human Liver microsomes
Data set [2] is described as follows: in vivo. Particulars: ICR, mouse, iv, 0.1 mg/kg.
The nature of data set [3]: in vitro. Particulars: PAMPA, pH 5.
Description: Permeability of compound at pH 5 by PAMPA assay
Data set [4] in a line: in vitro. Conditions: PAMPA, pH 7.4.
Description: Permeability of compound at pH 7.4 by PAMPA assay
The nature of data set [5]: in vivo. Particulars: ICR, mouse, iv, 0.1 mg/kg. The source holds these as a separate data set.
Description: Half life in ICR mouse at 0.1 mg/kg, iv
Data set [6] can be described thus: in vivo. Particulars: ICR, mouse, iv, 0.1 mg/kg. This is another data set of the same source.
Description: Clearance in ICR mouse at 0.1 mg/kg, iv
The nature of data set [7]: in vitro. Particulars: mouse, liver microsomes.
Description: Metabolic stability in mouse Liver microsomes
Data set [8] can be described thus: in vivo. Particulars: ICR, mouse, po, 1 mg/kg.
In data set [9] the target is Acetyl-CoA carboxylase 2 (Mus musculus, UniProt E9Q4Z2). Description: biochemical.
Sequence of Acetyl-CoA carboxylase 2 (Mus musculus, UniProt E9Q4Z2) (E9Q4Z2 whole entry): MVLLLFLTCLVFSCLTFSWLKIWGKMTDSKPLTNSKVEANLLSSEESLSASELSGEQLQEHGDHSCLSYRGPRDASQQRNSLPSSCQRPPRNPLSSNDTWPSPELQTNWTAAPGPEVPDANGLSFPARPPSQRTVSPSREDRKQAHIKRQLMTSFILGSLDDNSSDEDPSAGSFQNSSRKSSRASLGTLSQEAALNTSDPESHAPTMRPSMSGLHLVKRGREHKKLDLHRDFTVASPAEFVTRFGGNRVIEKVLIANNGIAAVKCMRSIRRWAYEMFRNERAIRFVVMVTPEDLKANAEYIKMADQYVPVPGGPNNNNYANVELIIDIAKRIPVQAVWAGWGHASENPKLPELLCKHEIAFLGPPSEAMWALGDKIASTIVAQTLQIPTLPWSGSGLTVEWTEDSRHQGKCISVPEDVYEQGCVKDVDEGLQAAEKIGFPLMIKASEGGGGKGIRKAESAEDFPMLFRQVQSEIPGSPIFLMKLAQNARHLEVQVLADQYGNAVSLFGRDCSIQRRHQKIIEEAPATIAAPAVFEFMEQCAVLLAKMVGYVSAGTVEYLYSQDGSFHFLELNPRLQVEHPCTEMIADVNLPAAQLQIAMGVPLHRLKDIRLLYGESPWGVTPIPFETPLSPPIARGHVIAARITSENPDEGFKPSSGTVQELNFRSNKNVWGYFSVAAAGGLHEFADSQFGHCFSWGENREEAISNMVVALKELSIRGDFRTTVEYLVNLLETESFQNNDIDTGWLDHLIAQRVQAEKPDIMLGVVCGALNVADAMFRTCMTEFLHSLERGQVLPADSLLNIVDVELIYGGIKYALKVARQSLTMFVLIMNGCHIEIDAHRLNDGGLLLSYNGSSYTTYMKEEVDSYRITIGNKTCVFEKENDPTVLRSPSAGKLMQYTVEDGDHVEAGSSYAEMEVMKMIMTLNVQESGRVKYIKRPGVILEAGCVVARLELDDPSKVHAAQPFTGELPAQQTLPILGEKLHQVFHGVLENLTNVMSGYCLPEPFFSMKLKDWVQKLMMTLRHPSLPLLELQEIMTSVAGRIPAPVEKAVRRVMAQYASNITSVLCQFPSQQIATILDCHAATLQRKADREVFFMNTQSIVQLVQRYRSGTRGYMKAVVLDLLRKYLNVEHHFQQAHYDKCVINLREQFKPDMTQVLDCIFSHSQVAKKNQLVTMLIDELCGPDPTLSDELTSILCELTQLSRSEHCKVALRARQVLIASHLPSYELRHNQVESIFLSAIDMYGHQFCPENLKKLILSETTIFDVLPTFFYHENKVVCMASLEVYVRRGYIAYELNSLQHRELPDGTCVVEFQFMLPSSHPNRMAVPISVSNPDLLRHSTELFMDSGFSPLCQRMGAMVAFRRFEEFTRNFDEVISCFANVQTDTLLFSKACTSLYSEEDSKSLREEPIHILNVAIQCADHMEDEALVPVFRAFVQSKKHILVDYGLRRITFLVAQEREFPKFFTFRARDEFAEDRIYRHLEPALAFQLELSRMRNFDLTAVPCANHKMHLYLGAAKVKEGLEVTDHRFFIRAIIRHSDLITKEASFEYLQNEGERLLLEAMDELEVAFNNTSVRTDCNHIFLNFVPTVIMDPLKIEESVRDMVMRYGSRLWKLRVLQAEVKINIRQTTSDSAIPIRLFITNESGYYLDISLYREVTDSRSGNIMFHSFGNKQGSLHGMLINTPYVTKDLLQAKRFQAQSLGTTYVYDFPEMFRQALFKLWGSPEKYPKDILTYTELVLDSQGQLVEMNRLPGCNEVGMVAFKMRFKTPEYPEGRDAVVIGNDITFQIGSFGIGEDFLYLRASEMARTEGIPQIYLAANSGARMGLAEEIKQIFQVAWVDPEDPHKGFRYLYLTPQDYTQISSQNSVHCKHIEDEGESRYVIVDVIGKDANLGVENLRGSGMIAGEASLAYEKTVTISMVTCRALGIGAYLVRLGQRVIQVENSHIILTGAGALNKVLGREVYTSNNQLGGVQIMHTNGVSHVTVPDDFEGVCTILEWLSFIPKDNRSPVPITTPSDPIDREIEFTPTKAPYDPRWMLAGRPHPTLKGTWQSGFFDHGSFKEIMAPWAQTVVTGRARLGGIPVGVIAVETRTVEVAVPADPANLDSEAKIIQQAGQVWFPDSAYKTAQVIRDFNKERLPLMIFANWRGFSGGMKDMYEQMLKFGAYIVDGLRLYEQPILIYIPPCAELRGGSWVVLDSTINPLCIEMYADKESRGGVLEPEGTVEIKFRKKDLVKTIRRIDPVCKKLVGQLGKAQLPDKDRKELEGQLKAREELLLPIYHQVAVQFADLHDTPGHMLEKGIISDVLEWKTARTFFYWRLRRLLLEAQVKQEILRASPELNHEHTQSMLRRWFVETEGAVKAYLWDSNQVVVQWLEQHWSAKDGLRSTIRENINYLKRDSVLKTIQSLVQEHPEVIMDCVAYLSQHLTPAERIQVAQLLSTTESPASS
Description: Inhibition of mouse His-tagged ACC2 expressed in baculovirus infected SF9 cells using acetyl-CoA as substrate incubated for 60 mins followed by substrate addition and measured after 30 mins Rapidfire-Mass spectrometry
The nature of data set [10]: in vivo. Conditions: ICR, mouse, po, 1 mg/kg. This is another data set of the same source.
Data set [11] can be described thus: in vivo. Particulars: ICR, mouse, iv, 0.1 mg/kg. This is another data set of the same source.
Description: Volume of distribution at steady state in ICR mouse at 0.1 mg/kg, iv
Data set [12] has as its target Acetyl-CoA carboxylase 1 (Mus musculus, UniProt Q5SWU9). Description: biochemical.
Description: Inhibition of mouse His-tagged ACC1 expressed in baculovirus infected SF9 cells using acetyl-CoA as substrate incubated for 60 mins followed by substrate addition and measured after 30 mins Rapidfire-Mass spectrometry
Data set [13] can be described thus: in vivo. Conditions: ICR, mouse, po, 1 mg/kg. The source holds these as a separate data set.
Description: MRT in ICR mouse at 1 mg/kg, po
Data set [14] addresses Acetyl-CoA carboxylase 2 (Homo sapiens, UniProt O00763). Description: biochemical.
Description: Inhibition of recombinant human His-tagged ACC2 expressed in baculovirus infected SF9 cells using acetyl-CoA as substrate incubated for 60 mins followed by substrate addition and measured after 30 mins Rapidfire-Mass spectrometry
The target in data set [15] is Acetyl-CoA carboxylase 1 (Homo sapiens, UniProt Q13085). Nature of the data set: biochemical.
Description: Inhibition of recombinant human His-tagged ACC1 expressed in baculovirus infected SF9 cells using acetyl-CoA as substrate incubated for 60 mins followed by substrate addition and measured after 30 mins Rapidfire-Mass spectrometry

Sequence of Acetyl-CoA carboxylase 2 (Homo sapiens, UniProt O00763) (O00763 whole entry): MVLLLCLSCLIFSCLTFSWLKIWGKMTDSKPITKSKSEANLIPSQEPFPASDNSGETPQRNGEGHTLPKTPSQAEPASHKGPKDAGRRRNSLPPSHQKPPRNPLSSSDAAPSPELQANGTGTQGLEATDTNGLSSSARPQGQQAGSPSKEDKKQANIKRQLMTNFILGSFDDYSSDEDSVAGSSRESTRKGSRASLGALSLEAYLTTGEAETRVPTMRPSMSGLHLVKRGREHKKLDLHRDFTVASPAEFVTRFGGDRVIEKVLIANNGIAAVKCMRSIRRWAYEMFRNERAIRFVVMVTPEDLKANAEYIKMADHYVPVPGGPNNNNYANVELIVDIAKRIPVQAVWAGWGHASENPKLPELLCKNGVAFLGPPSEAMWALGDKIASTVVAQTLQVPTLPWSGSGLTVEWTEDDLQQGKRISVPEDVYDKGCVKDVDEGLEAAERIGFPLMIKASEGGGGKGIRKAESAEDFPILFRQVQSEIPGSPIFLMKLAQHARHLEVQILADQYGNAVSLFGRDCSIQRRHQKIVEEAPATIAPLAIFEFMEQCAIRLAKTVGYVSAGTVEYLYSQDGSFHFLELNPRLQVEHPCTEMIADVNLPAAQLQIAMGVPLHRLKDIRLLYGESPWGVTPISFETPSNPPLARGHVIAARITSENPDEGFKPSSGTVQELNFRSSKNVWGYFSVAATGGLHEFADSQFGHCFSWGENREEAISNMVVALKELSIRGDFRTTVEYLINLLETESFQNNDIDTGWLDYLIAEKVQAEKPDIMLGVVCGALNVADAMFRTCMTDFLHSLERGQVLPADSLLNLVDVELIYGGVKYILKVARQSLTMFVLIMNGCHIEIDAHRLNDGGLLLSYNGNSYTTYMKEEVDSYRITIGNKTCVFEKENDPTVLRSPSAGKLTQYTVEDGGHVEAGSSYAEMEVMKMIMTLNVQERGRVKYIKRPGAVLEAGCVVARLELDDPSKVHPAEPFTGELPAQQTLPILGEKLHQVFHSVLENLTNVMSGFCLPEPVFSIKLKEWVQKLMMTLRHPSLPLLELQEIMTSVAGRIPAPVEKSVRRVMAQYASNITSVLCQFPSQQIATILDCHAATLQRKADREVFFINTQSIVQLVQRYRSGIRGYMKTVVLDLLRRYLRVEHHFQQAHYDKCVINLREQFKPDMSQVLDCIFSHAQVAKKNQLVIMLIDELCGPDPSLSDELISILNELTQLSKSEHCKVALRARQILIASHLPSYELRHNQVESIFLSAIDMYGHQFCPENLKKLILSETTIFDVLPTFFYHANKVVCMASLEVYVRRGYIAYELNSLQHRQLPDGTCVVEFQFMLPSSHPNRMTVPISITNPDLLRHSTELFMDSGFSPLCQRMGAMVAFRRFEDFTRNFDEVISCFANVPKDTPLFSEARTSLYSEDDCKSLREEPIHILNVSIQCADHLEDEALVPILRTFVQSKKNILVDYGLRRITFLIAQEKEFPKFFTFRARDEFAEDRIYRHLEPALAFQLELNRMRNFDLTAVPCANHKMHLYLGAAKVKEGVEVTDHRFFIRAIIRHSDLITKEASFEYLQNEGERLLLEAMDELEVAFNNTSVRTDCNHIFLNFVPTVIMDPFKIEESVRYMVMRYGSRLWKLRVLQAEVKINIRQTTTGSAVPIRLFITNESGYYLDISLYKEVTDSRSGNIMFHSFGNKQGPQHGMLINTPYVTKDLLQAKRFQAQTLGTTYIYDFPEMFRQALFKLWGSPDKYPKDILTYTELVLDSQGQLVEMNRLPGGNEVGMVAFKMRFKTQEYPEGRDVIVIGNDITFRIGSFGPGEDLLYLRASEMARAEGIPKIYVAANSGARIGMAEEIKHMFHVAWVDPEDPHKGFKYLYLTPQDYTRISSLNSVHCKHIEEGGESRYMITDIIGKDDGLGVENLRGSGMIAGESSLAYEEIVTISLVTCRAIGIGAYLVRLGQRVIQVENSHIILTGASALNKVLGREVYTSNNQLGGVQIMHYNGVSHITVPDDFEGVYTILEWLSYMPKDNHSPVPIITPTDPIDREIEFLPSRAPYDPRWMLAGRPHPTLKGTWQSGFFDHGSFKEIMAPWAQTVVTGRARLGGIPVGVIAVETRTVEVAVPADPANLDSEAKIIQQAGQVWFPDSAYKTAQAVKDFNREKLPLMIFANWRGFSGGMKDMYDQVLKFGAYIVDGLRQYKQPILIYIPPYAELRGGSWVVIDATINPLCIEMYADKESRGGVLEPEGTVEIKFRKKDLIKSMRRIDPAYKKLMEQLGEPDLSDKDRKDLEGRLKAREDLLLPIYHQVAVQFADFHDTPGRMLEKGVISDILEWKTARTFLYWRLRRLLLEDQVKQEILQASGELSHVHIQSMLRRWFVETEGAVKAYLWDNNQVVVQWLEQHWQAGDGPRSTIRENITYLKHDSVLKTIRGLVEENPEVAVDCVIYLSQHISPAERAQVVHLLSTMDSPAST

As to `CC(=O)NC(C)c1ccc2nc(-c3ccc(Oc4cccc(OCC5CC5)c4)nc3)oc2c1` (configuration not stated), the figures for the intrinsic metabolic clearance (microsomal CLint) in “in vitro [1]” and in “in vitro [7]” were 27 µL/min/mg and 65 µL/min/mg, respectively. Also, the Cmax in “in vivo [2]” is 1110 ng/mL. Further, the values for the Papp in “in vitro [3]” and in the data set “in vitro [4]” were 27.2 ×10⁻⁶ cm/s and 33.7 ×10⁻⁶ cm/s, respectively. Further, the half-life in “in vivo [5]” is greater than 8 h. Also, in the data set “in vivo [6]”, the clearance was 1.47 mL/min/kg. Also, in “in vivo [8]”, the bioavailability stood at 60.6%. The results for the pIC50 at Acetyl-CoA carboxylase 2 [9] and on Acetyl-CoA carboxylase 1 [12] were 7.44 and 9.74, respectively. For the same compound, the AUC(0-t) at 8 h in the data set “in vivo [10]” stood at 6880 ng·h/mL. The same compound showed a Vd in the data set “in vivo [11]” of 0.269 L/kg. In the data set “in vivo [13]”, this compound yielded an MRT of 3.69 h.

Turning to `CC(NC(=O)N(C)C)c1ccc2nc(-c3ccc(Oc4cccc(OCC5CC5)c4)nc3)oc2c1` (configuration not stated), the pIC50 on Acetyl-CoA carboxylase 2 [14] is 7.10; against Acetyl-CoA carboxylase 1 [15], 8.68.

As for `CNC(=O)NC(C)c1ccc2nc(-c3ccc(Oc4cccc(OCC5CC5)c4)nc3)oc2c1` (configuration not stated), the pIC50 was 7.11 on Acetyl-CoA carboxylase 2 [14] and 8.42 against Acetyl-CoA carboxylase 1 [15].
